Data as given in patent US20260125357A1, “LACTATE ENHANCING COMPOUNDS AND USES THEREOF” (GLIAPHARM SA, priority 2022, published 2026).

Experiments:
Type in all cases: in vivo, mouse
[1] = test system: C57Bl/6J wild-type mice; experiment: Lactate and glucose biosensors, cerebral extracellular levels in freely moving mice; conditions: per os, doses 10 to 30 mg/kg, 3 hours, AUC ratio vs vehicle
Experimental: (§1) All experiments were carried out in strict accordance with the Swiss Federal Guidelines for Animal Experimentation and were approved by the Cantonal Veterinary Office for Animal Experimentation (Canton of Geneva, Switzerland). Adult male C57Bl/6J wild-type mice weighting 18-28 g (8 to 12 weeks of age) were used (Charles River Laboratories). Animals were housed in groups of 3-5 in polypropylene cages (30×40×15 cm) with wire mesh top in a temperature (22±2° C.) and humidity (55±15%) controlled environment on a 12-hour light cycle (07.00-19.00 h lights on), except after surgeries when animal were housed individually. The samples (Vehicle or compounds of the invention) were administered per os (gavage) in a solution made of water supplemented with 0.4% hydroxypropyl methylcellulose (HPMC) Methocel 4 KM (w/v) and 0.25% Tween-20 (v/v), as previously described (Thackaberry et al., 2010, Toxicol Sci., 117(2):485-92). Concentrations of the compounds tested ranged from 3 to 30 mg/kg.
Cerebral extracellular levels of L-lactate and D-glucose were monitored in vivo using lactate and glucose biosensors (Pinnacle Technology), respectively, according to the manufacturer's instructions. Cannulae were surgically implanted in the medial prefrontal cortices (coordinates: −1.0 mm (to bregma), lateral+/−1.0 mm (to mideline), ventral −1.0 mm (to dura))) of isoflurane-anesthetized mice 5 to 7 days prior experiment. After surgery, mice were monitored closely and received analgesic treatment for at least 4 days. After mice had fully recovered from surgery, compounds of the invention of vehicle were administered per os as previously described and cerebral levels of extracellular lactate and glucose were dynamically recorded for 6 hours using biosensors. Mice were administered vehicle alone first, followed 3 hours later by vehicle or Compounds of the Invention. Concentrations of cerebral extracellular lactate and glucose were calculated from the biosensor electric signals using post-calibration values. […] Area Under the Curve (AUC) of lactate and glucose concentration curves were calculated using Graphad Prism and the ratio of AUC after drug over Vehicle administration was calculated. Extracellular concentrations of lactate and glucose were measured in real time in freely moving animals for 3 hours after administration of Vehicle or compounds (1) to (4) at doses ranging from 10 to 30 mg/kg (FIG. 5).

[2] = test system: C57Bl/6J wild-type mice; experiment: 18F-FDG PET glucose uptake in the brain; conditions: gavage, 30 mg/kg, vs Vehicle
Experimental: as §1
^18F-FDG PET Glucose uptake in the brain was measured in vivo using 18F-fluorodeoxyglucose (FDG) with positron emission tomography (PET) Scan. Mice were fasted for 12 hours before the scans PET/CT measurements. Compounds of the invention were administered by gavage, followed by an intraperitoneal injection of 5 MBq of ^18F-FDG in 300 μL of saline. […]

[3] = test system: mice injected with streptozotocin; experiment: Novel Object Recognition in streptozotocin ICV injection model of Alzheimer's disease; conditions: 1 day after training, vs Veh
Experimental: Craniotomies are performed on isoflurane-anesthetized mice for injections of Veh or streptozotocin in cerebral ventricles (coordinates: −0.5 mm (to bregma), lateral+/−1.0 mm (to midline), ventral −2.2 mm (to dura)) (Kelliny S. et al., Molecular Neurobiology, 2021). A solution composed of Veh (0.9% NaCl) or streptozotocin (5 mg/kg) prepared in 1 μl artificial cerebrospinal fluid solution (aCSF, 20 mM citrate buffer, pH 4.2) is injected in both cerebral ventricles using Hamilton micro syringe at a constant speed of 100-200 nl/min. After injection, skin of the skull is sutured, and mice is monitored closely and receives analgesic treatment for at least 4 days. After mice had fully recovered from surgery, memory tests including Morris Water Maze (MWM), Inhibitory Avoidance (IA) and Novel Object Recognition (NOR), as described below, are performed. […]
Novel object recognition (NOR) is a well-established protocol to evaluate recognition memory in rodent models. […] During the acquisition period, time spent exploring and number of contacts with each object are recorded. […] The time of exploration and number of contacts with each object are recorded. The activity is recorded automatically using automated tracking software (Ethovision).

SMILES: COc1cc2ccnc(Nc3ccc(S(C)(=O)=O)cc3)c2cc1OC [Compound 2, 6,7-dimethoxy-N-(4-methylsulfonylphenyl)isoquinolin-1-amine]
- extracellular glucose levels in the brain [1]: significantly increases extracellular glucose levels
- extracellular lactate levels in the brain [1]: significantly increases extracellular lactate levels
- glucose uptake in the brain (18F-FDG in the whole brain) [2]: increases glucose uptake in the brain
- memory in the Novel object recognition ([3]; 10 mg/kg): significantly higher
- memory in the Novel object recognition ([3]; 30 mg/kg): significantly higher
